Values quoted from earlier work, collected in patent publication US20230372216A1, “METHOD FOR DYEING KERATINOUS MATERIAL, COMPRISING THE USE OF AN ORGANOSILICON COMPOUND, A DYEING COMPOUND, A SEALING REAGENT AND A PRE-TREATMENT AGENT” (Henkel AG & Co. KGaA, priority 2020, published 2023).

conditions: 25° C.

Compound	solubility in water	solubility in water (in words)
O=S(=O)([O-])c1ccc(N=Nc2c(O)ccc3ccccc23)cc1.[Na+] [Acid Orange 7, sodium salt of 4-[(2-hydroxy-1-naphthyl)azo]benzene sulphonate]	more than 7 g/L	
O=C([O-])c1c(Cl)c(Cl)c(Cl)c(Cl)c1-c1c2c(Br)cc(=O)c(Br)c-2oc2c(Br)c(O)cc(Br)c12.O=C([O-])c1c(Cl)c(Cl)c(Cl)c(Cl)c1-c1c2c(Br)cc(=O)c(Br)c-2oc2c(Br)c(O)cc(Br)c12.[Na+].[Na+] [Acid Red 92, disodium salt of 3,4,5,6-tetrachloro-2-(1,4,5,8-tetrabromo-6-hydroxy-3-oxoxanthen-9-yl)benzoic acid]	greater than 10 g/L	
CCN(Cc1cccc(S(=O)(=O)[O-])c1)c1ccc(C(=C2C=CC(=[N+](CC)Cc3cccc(S(=O)(=O)[O-])c3)C=C2)c2ccccc2S(=O)(=O)[O-])cc1.[Na+].[Na+] [Acid Blue 9]	more than 20 wt. %	
Nc1cc(S(=O)(=O)[O-])cc2cc(S(=O)(=O)[O-])c(N=Nc3ccccc3)c(O)c12.[Na+].[Na+] [Acid Red 33, disodium salt of 5-amino-4-hydroxy-3-(phenylazo)-naphthalene-2,7-disulphonate]	2.5 mg/mL	

Results, then the compound that gave them:

solubility in water	solubility in water (in words)	Compound
	highly soluble in water	O=C([O-])C1=NN(c2ccc(S(=O)(=O)[O-])cc2)C(=O)C1N=Nc1ccc(S(=O)(=O)[O-])cc1.[Na+].[Na+].[Na+] (stereo not drawn) [Acid Yellow 23, trisodium salt of 4,5-dihydro-5-oxo-1-(4-sulfophenyl)-4-((4-sulfophenyl)azo)-1H-pyrazole-3-carboxylic acid]
20 mg/mL		sodium salts of mono- and disulfonic acids of 2-(2-quinolyl)-1H-indene-1,3(2H)-dione [Acid Yellow 3]
